Test results as given in publication PMC11206778, “Preclinical Pharmacokinetic Study and Lung Penetration of a Coumarin Extracted from Zanthoxylum tingoassuiba” (Pharmaceutics, 2024).
Read-outs that look alike come from different tables or passages of the source.

Legend:
[1] = Plasma pharmacokinetics study in mice (non-compartmental analysis, HPLC-DAD); type: in vivo, Balb/c mice; settings: mean ± SD; for k el: read-out: ke (converted)
Experimental: The pharmacokinetic analysis was carried out with Balb/c mice (~30 g) obtained from the Animal Facilities at Oswaldo Cruz Foundation (Fiocruz, Bahia, Brazil) and kept in a room with environmental control (22 ± 2 °C and 12:12 h light–dark cycle), and with free access to water and food until the day of the experiment. Animal care and handling procedures were in strict accordance with the recommendations in the Guide for the Care and Use of Laboratory Animals of the National Institute of Health and the Brazilian College of Animal Experimentation. The protocol was approved by the Institutional Animal Care and Use Committee of FIOCRUZ (CEUA/FIOCRUZ, permit number: L-IGM-013/2021).
The compound was administered to the mice (n = 3 per time point) by inhalation and intravenous routes at 50 and 15 mg/kg, respectively. The intravenous administration was conducted through the lateral tail vein, and the inhalation dosing was conducted using inhalation exposure chambers. The nebulizer device was operated according to the manufacturer’s specifications. The blood samples were collected 0.083, 0.25, 0.5, 0.75, 1, 2, and 4 h after both administrations. The blood samples were centrifuged for plasma separation (6000 rpm, 10 min, 8 °C) and stored at −18 °C until analysis.
The non-compartmental pharmacokinetic parameters of both studies were estimated using PKanalix® Suite 2020R1 software (Lixoft®, Antony, France). The determined PK parameters included the elimination rate constant (ke), the elimination half-life (t1/2), the area under the concentration–time curve (AUC) calculated by the linear trapezoidal rule, the mean residence time (MRT), the total clearance (CL), and the volume of distribution (Vd).

[2] = tested on: arteries isolated from rats; design: method as in PMID 31711783, PMID 37149230; settings: cited from earlier work
[3] = Long-term stability in mice plasma stored at −18 °C; type: in vitro ADME
Experimental: Stability assays were performed in triplicate with the QC samples (LQC and HQC) by adding 6-methoxyseselin to mice plasma. The stability after 30, 45, and 60 days was performed with samples stored at −18 °C. 6-methoxyseselin was considered stable in plasma for the period evaluated when the accuracy was within acceptable limits (RSE within ±15%).

[4] = Lung distribution in mice (AUC lung/AUC plasma ratio); type: in vivo; settings: male, Balb/c, mouse, read-out: Lung penetration factor (AUC inf lung/AUC inf plasma)
Experimental: The lung distribution experiment used Male Balb/c (~30 g). After intravenous bolus and inhalation administration of 15 mg/kg and 50 mg/kg, respectively, of 6-methoxyseselin, three animals were sacrificed at 0.5 h, 1 h, 2 h, and 4 h, each. The lung samples were removed, gently blotted dry, weighed, and frozen at −80 °C until processing. On the day of the analysis, tissue samples were allowed to thaw and were weighed, and 2 mL of methanol was added per gram of tissue. The tissues were homogenized for approximately 5 min, and the homogenates were then transferred to Eppendorf® tubes and centrifuged at 3500× g for 15 min at 4 °C. A volume of supernatant was then processed similarly to the plasma samples and analyzed by HPLC-DAD. The lung penetration was calculated using the AUC lung/AUC plasma ratio. The trapezoidal method was used to estimate both AUCs.

[5] = cited from earlier work
[6] = Balb/c, mouse, inhaled or intranasal, inhalation 50 mg/kg
[7] = Balb/c, mouse, intravenous 15 mg/kg

COc1cc2ccc(=O)oc2c2c1OC(C)(C)C=C2 [6-methoxyseselin]
MRT [1, 6]: 5.4 ± 2.1 h | half-life [1, 6]: 3.3 ± 0.86 h | k el [1, 6]: 5.83e-05 s⁻¹ | MRT [1, 7]: 3.23 ± 1.57 h | clearance [1, 7]: 88.7 mL/min/kg | half-life [1, 7]: 2.6 ± 0.73 h | Vd ([1]; Balb/c, mouse, intravenous 15 mg/kg, read-out: Vd): 19.6 ± 1.57 L/kg | k el [1, 7]: 7.5e-05 s⁻¹ | Cl ([1]; inhalation 50 mg/kg): 110 ± 39 mL/min/kg | Vd ([1]; inhalation 50 mg/kg): 18.79 ± 2.58 L/kg | Vasorelaxation [2]: potent vasorelaxation | Stability in storage (verdict) ([3]; 60 days): unstable | Stability in storage (verdict) ([3]; until day 30): stable | Kp ([4]; inhaled, inhalation 50 mg/kg): 2.14 | Kp ([4]; intravenous 15 mg/kg): 1.45

CCCC1O[C@@H]2C[C@H]3[C@@H]4CCC5=CC(=O)C=C[C@]5(C)[C@H]4[C@@H](O)C[C@]3(C)[C@]2(C(=O)CO)O1 (stereo partly drawn) [budesonide]
half-life [5]: 2 to 3.6 h | Vd ([5]; reference not given, ref 22 follows in the same paragraph): 2.2 to 3.9 L/kg

CC(C)(C)NCC(O)c1ccc(O)c(CO)c1 (stereo not drawn) [salbutamol]
Vd [5]: 3 to 4 L/kg
